The source of these data is patent US20250230165A1, “HETEROCYCLIC COMPOUNDS FOR USE IN THE TREATMENT OF CANCER” (ARTIOS PHARMA LIMITED, priority 2021, published 2025).

Structures are written as SMILES.

This experiment has as its target T1, Human Polθ polymerase domain (aa1820-2590) (Homo sapiens, UniProt O75417).
T1 construct: Human Polθ polymerase domain (aa1820-2590) was expressed in E. coli; made in house; host or cells: E. coli
T1 sequence (O75417 1820-2590): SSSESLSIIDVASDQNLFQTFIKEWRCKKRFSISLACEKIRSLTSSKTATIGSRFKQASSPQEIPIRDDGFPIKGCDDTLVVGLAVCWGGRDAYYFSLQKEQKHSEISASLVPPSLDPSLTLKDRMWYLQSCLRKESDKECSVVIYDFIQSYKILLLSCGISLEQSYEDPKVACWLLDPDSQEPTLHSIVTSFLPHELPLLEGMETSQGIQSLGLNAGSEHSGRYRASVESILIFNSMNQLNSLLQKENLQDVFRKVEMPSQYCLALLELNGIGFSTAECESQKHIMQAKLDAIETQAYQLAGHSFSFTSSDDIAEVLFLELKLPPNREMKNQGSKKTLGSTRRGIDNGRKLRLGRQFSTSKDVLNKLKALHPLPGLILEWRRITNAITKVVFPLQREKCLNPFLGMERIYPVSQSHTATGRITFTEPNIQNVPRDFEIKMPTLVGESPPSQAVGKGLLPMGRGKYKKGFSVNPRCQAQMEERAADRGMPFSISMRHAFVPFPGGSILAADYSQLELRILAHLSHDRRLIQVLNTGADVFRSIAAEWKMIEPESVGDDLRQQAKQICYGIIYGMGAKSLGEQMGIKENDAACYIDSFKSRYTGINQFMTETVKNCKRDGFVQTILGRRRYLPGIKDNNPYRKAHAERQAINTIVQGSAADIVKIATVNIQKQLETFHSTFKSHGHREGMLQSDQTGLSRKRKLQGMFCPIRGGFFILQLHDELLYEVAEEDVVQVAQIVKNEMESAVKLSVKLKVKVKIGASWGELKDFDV
The experiment in a line: Polθ Polymerase Domain Kinact/KI Assay (PicoGreen). It counts as biochemical. As to conditions: 0.8 nM Polθ, 100 nM DNA substrate, kobs vs [I] fit for 2-step covalent inhibitor. The procedure: Polθ Polymerase Domain Kinact/KI Assay
A PicoGreen assay was used to measure the Kinact and KI values of covalent compounds that inhibit the activity of Polθ in vitro.
Human Polθ polymerase domain (aa1820-2590) was expressed in E. coli, purified, aliquoted and stored at −80° C. until required. Polθ substrate was generated from a 1.2:1 mix of DNA II Short to DNA II Long to give a final concentration of […] substrate in annealing buffer (20 mM Tris pH 7.5, 50 mM NaCl). The substrate was heated in […] aliquots to 95° C. in a heating block for 5 min before the heating block switched off, the reaction left to cool to rt and stored at −20° C. until required.
Assay measurements were performed with 1× buffer comprising 25 mM Tris pH 7.5, 12.5 mM NaCl, […], 5% (v/v) glycerol, 0.01% v/v Triton x-100, 0.1 mg/ml BSA, 1 mM DTT. Test compounds were prepared by dilution in 100% DMSO to give a 12 μM intermediate stock of each (100× final top concentration). 100 nL of 23×1:1.5-fold serial dilutions and a DMSO only control were dispensed using the Tecan dispenser into Greiner 384 well black low volume plates (product code 784076). DMSO concentration was maintained at 1% of the final assay volume by back filling with DMSO.
2× Working stock of substrate (200 nM of DNA substrate and […] dNTPs) and enzyme ([…] PolΘ) were made up in assay buffer. 5 μL/well of both enzyme and substrate 2× solutions were dispensed using a Tempest dispenser (Formulatrix) into assay plates that had been pre-dispensed with compound to give a final assay concentration of 100 nM DNA substrate, […] dNTPs and 0.8 nM Polθ. To stop the reaction, […] of a solution containing 25 mM Tris-HCl pH 7.5 and 20 mM EDTA was added at […] (t=0, 2.5, 5, 7.5, 10, 12.5, 15, 20, 25, 30, 35, 40, 45, 50, 55 and 60 min) using the Tempest's time delay function. The plates were covered during the time course to prevent evaporation. After completing the assay, 5 μL of detection reagent (25 mM Tris-HCl pH 7.5 and 2.5% (v/v) PicoGreen) was dispensed into the wells using a Tempest liquid handler (Formulatrix) and plates subsequently read on the CLARIOstar Plus (BMG Labtech) using the default optical settings for fluorescein and the auto gain/focus settings.
All data analysis was carried out using GraphPad Prism V.8 (GraphPad Software Inc, San Diego, CA) Time course data for each inhibitor concentration was fitted to equation 1 to determine kobs values.^1 Any time points where the control (DMSO alone) reaction was no longer linear were excluded from the analysis. 1) Evaluation of Enzyme Inhibitors in Drug Discovery (Ch9), R. A Copeland, Wiley, 2nd Edition 2013.
A secondary plot of kobs vs [I] is used to determine the Kinact and KI parameters (for a 2-step covalent inhibitor) by fitting to equation 2.^1

Consider `C=CC(=O)N1CC(N2CCC(CN3C[C@H]4CC(=O)N(c5cc(C(F)(F)F)cc(C)n5)[C@@H]4C(=O)N(C)c4cccc(Cl)c43)C(O)C2)C1` (stereo partly drawn) [Example 96, (3aR,11aS)-5-((1-(1-acryloylazetidin-3-yl)-3-hydroxypiperidin-4-yl)methyl)-6-chloro-10-methyl-1-(6-methyl-4-(trifluoromethyl)pyridin-2-yl)-1,3a,4,5,10,11a-hexahydro-2H-benzo[b]pyrrolo[2,3-f][1,4]diazocine-2,11(3H)-dione], for which the Kinact/Kl stood at 810000 M⁻¹ s⁻¹.

Take `C=CC(=O)N1CC2(CN(CCN3C[C@H]4CC(=O)N(c5cc(C(F)(F)F)cc(C)n5)[C@@H]4C(=O)N(C)c4cccc(Cl)c43)C[C@H]2C#N)C1` (racemic) [Example 117b, (S/R)-2-acryloyl-6-(2-((3aR,11aS)-6-chloro-10-methyl-1-(6-methyl-4-(trifluoromethyl)pyridin-2-yl)-2,11-dioxo-1,2,3,3a,4,10,11,11a-octahydro-5H-benzo[b]pyrrolo[2,3-f][1,4]diazocin-5-yl)ethyl)-2,6-diazaspiro[3.4]octane-8-carbonitrile]: the Kinact/Kl came out at 3.5e+06 M⁻¹ s⁻¹. `C=C(CN(C)C)C(=O)N1CCC[C@@H]1c1ccc(CN2C[C@H]3CC(=O)N(c4cc(C(F)(F)F)cc(C)n4)[C@@H]3C(=O)N(C)c3cccc(F)c32)cc1` (racemic) [Example 171a, (3aR,11aS)-5-(4-((R/S)-1-(2-((di-methylamino)-methyl)acryloyl)-pyrrolidin-2-yl)-benzyl)-6-fluoro-10-methyl-1-(6-methyl-4-(tri-fluoromethyl)-pyridin-2-yl)-1,3a,4,5,10,11a-hexahydro-2H-benzo[b]pyrrolo [2,3-f][1,4]diazo-cine-2,11(3H)-dione]: the Kinact/Kl worked out at 2.29e+06 M⁻¹ s⁻¹. The molecule `C=CC(=O)N1C[C@H]2CN(CCN3C[C@H]4CC(=O)N(c5cc(C(F)(F)F)cc(C)n5)[C@@H]4C(=O)N(C)c4cccc(F)c43)CCN2C(=O)[C@H]1C` (single isomer, unassigned) [Example 58] yielded a Kinact/Kl of 500000 M⁻¹ s⁻¹.

With `C=CC(=O)N1Cc2nc(CN3C[C@H]4CC(=O)N(c5cc(C(F)(F)F)cc(C)n5)[C@@H]4C(=O)N(C)c4cccc(Cl)c43)ccc2[C@@H]1CC#N` (racemic) [Example 290a], the Kinact/Kl was 2.02e+06 M⁻¹ s⁻¹. For `C=C(CN(C)C)C(=O)N1CC(COCCN2C[C@H]3CC(=O)N(c4cc(C(F)(F)F)cc(C)n4)[C@@H]3C(=O)N(C)c3cccc(Cl)c32)C1` [Example 162, (3aR,11aS)-6-chloro-5-(2-((1-(2-((dimethylamino)methyl)acryloyl)azetidin-3-yl)methoxy)ethyl)-10-methyl-1-(6-methyl-4-(trifluoromethyl)pyridin-2-yl)-1,3a,4,5,10,11a-hexahydro-2H-benzo[b]pyrrolo[2,3-f][1,4]diazocine-2,11(3H)-dione] the value was 2.95e+06 M⁻¹ s⁻¹. In turn, `C=CC(=O)N1CC2(C1)N[C@H](C)CN(CCN1C[C@H]3CC(=O)N(c4cc(C(F)(F)F)cc(C)n4)[C@@H]3C(=O)N(C)c3cccc(F)c31)C2C` (mixture of isomers) [Example 37b, (3aR,11aS)-5-(2-((6R,9R/S)-2-acryloyl-6,9-dimethyl-2,5,8-triazaspiro[3.5]nonan-8-yl)ethyl)-6-fluoro-10-methyl-1-(6-methyl-4-(trifluoromethyl)pyridin-2-yl)-1,3a,4,5,10,11a-hexahydro-2H-benzo[b]pyrrolo[2,3-f][1,4]diazocine-2,11(3H)-dione] yielded a Kinact/Kl of 580000 M⁻¹ s⁻¹. In turn, `C=CC(=O)N1CCn2nc(CN3C[C@H]4CC(=O)N(c5cc(C(F)(F)F)cc(C)n5)[C@@H]4C(=O)N(C)c4cccc(F)c43)nc2C1` [Example 133, (3aR,11aS)-5-((7-acryloyl-5,6,7,8-tetrahydro-[1,2,4]triazolo[1,5-a]pyrazin-2-yl)methyl)-6-fluoro-10-methyl-1-(6-methyl-4-(trifluoromethyl)pyridin-2-yl)-1,3a,4,5,10,11a-hexahydro-2H-benzo[b]pyrrolo[2,3-f][1,4]diazocine-2,11(3H)-dione] gave a Kinact/Kl of 1.7e+06 M⁻¹ s⁻¹. Then `C=CC(=O)N1Cc2ncc(CN3C[C@H]4CC(=O)N(c5cc(C(F)(F)F)cc(C)n5)[C@@H]4C(=O)N(C)c4cccc(Cl)c43)cc2C1CC#N` (single isomer, unassigned) [Example 291a], with 1.17e+06 M⁻¹ s⁻¹.

Turning to `C=CC(=O)N1CC(c2nc(CN3C[C@H]4CC(=O)N(c5cc(C(F)(F)F)cc(C)n5)[C@@H]4C(=O)N(C)c4cccc(F)c43)no2)C1` [Example 101, (3aR,11aS)-5-((5-(1-acryloylazetidin-3-yl)-1,2,4-oxadiazol-3-yl)methyl)-6-fluoro-10-methyl-1-(6-methyl-4-(trifluoromethyl)pyridin-2-yl)-1,3a,4,5,10,11a-hexahydro-2H-benzo[b]pyrrolo[2,3-f][1,4]diazocine-2,11(3H)-dione], the Kinact/Kl came to 1.47e+06 M⁻¹ s⁻¹. With `Cc1cc(C(F)(F)F)cc(N2C(=O)C[C@@H]3CN(Cc4cn5c(n4)CN(C(=O)CCl)C(C)C5)c4c(Cl)cccc4N(C)C(=O)[C@H]32)n1` (mixture of isomers) [Example 73a, (3aR,11aS)-6-chloro-5-(((R/S)-7-(2-chloroacetyl)-6-methyl-5,6,7,8-tetrahydroimidazo[1,2-a]pyrazin-2-yl)methyl)-10-methyl-1-(6-methyl-4-(trifluoromethyl)pyridin-2-yl)-1,3a,4,5,10,11a-hexahydro-2H-benzo[b]pyrrolo[2,3-f][1,4]diazocine-2,11(3H)-dione], the Kinact/Kl is 39000 M⁻¹ s⁻¹. Then `C=CC(=O)N1CCN(c2cccc(N3C[C@H]4CC(=O)N(c5cc(C(F)(F)F)cc(C)n5)[C@@H]4C(=O)N(C)c4cccc(F)c43)c2)CC1` [Example 54, (3aR,11aS)-5-(3-(4-acryloylpiperazin-1-yl)phenyl)-6-fluoro-10-methyl-1-(6-methyl-4-(trifluoromethyl)pyridin-2-yl)-1,3a,4,5,10,11a-hexahydro-2H-benzo[b]pyrrolo[2,3-f][1,4]diazocine-2,11(3H)-dione], with 110000 M⁻¹ s⁻¹; and `C=C(CN(C)C)C(=O)NC12CC(CN3C[C@H]4CC(=O)N(c5cc(C(F)(F)F)cc(C)n5)[C@@H]4C(=O)N(C)c4cccc(Cl)c43)(C1)C2` [Example 164, N-(3-(((3aR,11aS)-6-chloro-10-methyl-1-(6-methyl-4-(trifluoromethyl)pyridin-2-yl)-2,11-dioxo-1,2,3,3a,4, 10,11,11a-octahydro-5H-benzo[b]pyrrolo[2,3-f][1,4]diazocin-5-yl)methyl)bicyclo[1.1.1]pentan-1-yl)-2-((dimethylamino)methyl) acrylamide], with 2.38e+06 M⁻¹ s⁻¹.
